Data from the supplement of paper PMC10307832.

Assays:
Assay in all cases: relative viability (nuclei count vs DMSO), 5 days (fraction); higher = more cells survive
[1] = compound: C1=CC=C(C(=C1)C2=CC=C(C=C2)C3=CSC4=C3C(=C(C(=O)N4)C#N)O)O + Cc1nc(NC(=O)N2CCC[C@H]2C(N)=O)sc1-c1ccnc(C(C)(C)C(F)(F)F)c1 [Alpelisib] (partner 2 µM)
Method in brief: (§1)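 Dosing by pin tool came one day after lung cancer cell lines were seeded in 1536-well plates, using either one drug or a fixed anchor-drug dose plus five library-drug doses (not always all listed) in √10 steps. After 5 days, nuclei were counted on 4× images. Relative viability is treated-well nuclei count divided by vehicle-well nuclei count, and values are medians of duplicate plates.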

TGX 221 + Trametinib = compound: CC1=CN2C(=O)C=C(N=C2C(=C1)C(C)NC3=CC=CC=C3)N4CCOCC4 [TGX 221] + CC(=O)Nc1cccc(-n2c(=O)n(C3CC3)c(=O)c3c(Nc4ccc(I)cc4F)n(C)c(=O)c(C)c32)c1 [Trametinib] (partner 0.02 µM)
Method in brief: as §1

TGX 221 + Vorinostat = compound: CC1=CN2C(=O)C=C(N=C2C(=C1)C(C)NC3=CC=CC=C3)N4CCOCC4 [TGX 221] + O=C(CCCCCCC(=O)Nc1ccccc1)NO [Vorinostat] (partner 1 µM)
Method in brief: as §1

Ricolinostat + Dasatinib = compound: O=C(CCCCCCNC(=O)c1cnc(N(c2ccccc2)c2ccccc2)nc1)NO [Ricolinostat] + Cc1nc(Nc2ncc(C(=O)Nc3c(C)cccc3Cl)s2)cc(N2CCN(CCO)CC2)n1 [Dasatinib] (partner 0.075 µM)
Method in brief: as §1

| Cell Line | relative viability ([1]; first compound 0.08 µM) | relative viability ([1]; first compound 0.253 µM) | relative viability ([1]; first compound 0.8 µM) | relative viability ([1]; first compound 2.53 µM) | relative viability ([1]; first compound 8 µM) | relative viability (TGX 221 + Trametinib; first compound 0.08 µM) | relative viability (TGX 221 + Trametinib; first compound 0.253 µM) | relative viability (TGX 221 + Trametinib; first compound 0.8 µM) | relative viability (TGX 221 + Trametinib; first compound 2.53 µM) | relative viability (TGX 221 + Trametinib; first compound 8 µM) | relative viability (TGX 221 + Vorinostat; first compound 0.08 µM) | relative viability (TGX 221 + Vorinostat; first compound 0.253 µM) | relative viability (TGX 221 + Vorinostat; first compound 0.8 µM) | relative viability (TGX 221 + Vorinostat; first compound 2.53 µM) | relative viability (TGX 221 + Vorinostat; first compound 8 µM) | relative viability (Ricolinostat + Dasatinib; first compound 0.08 µM) | relative viability (Ricolinostat + Dasatinib; first compound 0.253 µM) | relative viability (Ricolinostat + Dasatinib; first compound 0.8 µM) | relative viability (Ricolinostat + Dasatinib; first compound 2.53 µM) |
| --- | --- | --- | --- | --- | --- | --- | --- | --- | --- | --- | --- | --- | --- | --- | --- | --- | --- | --- | --- |
| NCI-H1915 | 1.11 | 1.07 | 1.07 | 1.08 | 0.991 | 0.283 | 0.29 | 0.29 | 0.274 | 0.238 | 0.436 | 0.486 | 0.489 | 0.437 | 0.554 | 0.277 | 0.29 | 0.275 | 0.231 |
| RERF-LC-KJ | 0.769 | 0.935 | 0.961 | 0.782 | 0.69 | 0.686 | 0.756 | 0.83 | 0.775 | 0.753 | 0.684 | 0.708 | 0.678 | 0.69 | 0.678 | 0.743 | 0.759 | 0.748 | 0.518 |
| NCI-H520 | 0.602 | 0.767 | 1.03 | 0.87 | 0.861 | 0.521 | 0.591 | 0.744 | 0.597 | 0.505 | 0.599 | 0.564 | 0.627 | 0.493 | 0.53 | – | 0.313 | 0.211 | 0.231 |
| NCI-H2085 | 0.872 | 1.08 | 1 | 0.973 | 0.879 | 0.505 | 0.351 | 0.374 | 0.286 | 0.276 | 0.86 | 0.667 | 0.562 | 0.416 | 0.436 | 0.205 | 0.256 | 0.18 | 0.217 |
| LCLC-103H | 0.948 | 0.881 | 1.05 | 0.981 | 0.869 | 0.65 | 0.639 | 0.626 | 0.683 | 0.651 | 0.761 | 0.806 | 0.708 | 0.647 | 0.766 | 0.437 | 0.55 | 0.423 | 0.464 |
| PC-14 | 0.761 | 1.17 | 0.853 | 0.981 | 0.71 | 0.666 | 0.701 | 0.701 | 0.717 | 0.515 | 0.682 | 0.626 | 0.687 | 0.748 | 0.662 | 0.243 | 0.248 | 0.267 | 0.233 |
| HCC-366 | 0.506 | 0.491 | 0.431 | 0.441 | 0.367 | 0.288 | 0.325 | 0.311 | 0.235 | 0.239 | 0.357 | 0.327 | 0.365 | 0.292 | 0.351 | 0.487 | 0.613 | 0.576 | 0.451 |
